# Earlier results in patent US9456985B2, “Sustained-released product comprising a combination of a non-opioid amine and a non-steroidal, anti-inflammatory drug” (Upsher-Smith Laboratories, Inc., priority 2009, dated 2016).
# Counter-ions that a name gives are not always drawn.
# Conditions: no test described
row,solubility (descriptive),SMILES
1,freely soluble,NC12CC3CC(CC(C3)C1)C2 [Amantadine hydrochloride]
2,soluble in water,"CC12CC3CC(C)(C1)CC(N)(C3)C2 [memantine hydrochloride, Memantine hydrochloride]"
